Reference: US20260217983A1, “SULFONIUM SALT PHOTOINITIATORS AND METHODS OF LED CURING A COMPOSITION WITH SAID SULFONIUM SALT PHOTOINITIATORS” (ARKEMA FRANCE, priority 2022, published 2026)

Legend:
[1] = Molar extinction coefficient in acetonitrile; assay type: physicochemical
Procedure: (§1) The curing performance of individual products prepared above was assessed using real time FT-IR measurement. The photoinitiators were dissolved in cycloaliphatic epoxy resin UViCure S105 (available from Sartomer) at the indicated wt % loading, applied onto the FT-IR measurement plate and irradiated with the indicated LED light source. The polymerization rate and final reactive group conversion were determined by monitoring the change of the relevant infrared band near 900 cm^−1 corresponding to an epoxide ring during irradiation. The molar extinction coefficients for the photoinitiator products (ε, expressed in M^−1 cm^−1) were determined in acetonitrile at 10^-3 M or 10^-5 M concentration.

[2] = Real time FT-IR curing performance in UViCure S105 at 365 and 385 nm; conditions: for Polymerization rate Rp/[M0]*100 / Final conversion: UViCure S105, 20 μm thickness, under air; for Final conversion: epoxide band; for cure speed compared with photoinitiators known from prior art such as Omnicat BL 550: LED lamp conditions, Example 2
Procedure: as §1

[3] = Belt curing performance (thumb-twist depth cure) in UViCure S105E resin; conditions: 24 μm film, under air, PI 2 wt %
Procedure: (§2) The photoinitiators were dissolved either in neat UViCure S105E resin or a hybrid acrylate/epoxy resin (prepared by mixing 60 wt parts UViCure S105E, 15 wt parts UViCure S130 and 25 wt parts SR492; all product are available from Sartomer). Formulations were prepared by combining all materials in the given proportions and then stirring at 30-40° C. until the samples were fully homogeneous; the formulations were then allowed to cool to room temperature. For all experiments, the formulations were cured on Leneta Form 3N-31 gloss finish paper at 6 μm and 24 μm film thickness using a belt-cure instrument; the films were prepared using a K-bar. All films were then cured under an LED lamp at a given belt speed. ‘Depth cure’ for each formulation was assessed using the ‘thumb-twist’ test (where no visible mark is made when a thumb is pressed down firmly onto the coating with a twisting motion), and from the belt speed; the calculated cure speed (in m/min) is given.

[4] = Real time FT-IR curing performance at 405 nm in neat TMPTA; conditions: 20 μm thickness, laminated; for Acrylate Polymerization rate Rp/[M0]*100: LED @405 nm (110 W/cm^2); for Acrylate Final conversion: LED @405 nm (110 mW/cm^2)
Procedure: (§3) The curing performance of individual products prepared above was assessed using real time FT-IR measurement. The photoinitiators were dissolved either in neat trimethylolpropane triacrylate (TMPTA; available as SR351 from Sartomer) or in a 1:1 (w/w) mixture of TMPTA and UViCure S105 as indicated, applied onto the FT-IR measurement plate, laminated to prevent oxygen inhibition, and irradiated with the indicated LED light source. For the epoxy component, the polymerization rate and final reactive group conversion were determined by monitoring the change of the relevant infrared band near 900 cm^−1 corresponding to an epoxide ring. For the acrylate component, the C═C stretch band near 1625 cm^−1 was used.

[5] = Real time FT-IR curing performance at 405 nm in UViCure S105/TMPTA (1:1); conditions: LED @405 nm (110 mW/cm^2), 20 μm thickness, laminated
Procedure: as §3

[6] = Belt curing performance (thumb-twist depth cure) in hybrid acrylate/epoxy resin; conditions: 24 μm film, under air, PI 2 wt %
Procedure: as §2

[7] = Colour index 'b' of formulations before and after polymerization; assay type: physicochemical; conditions: UViCure S105E, thin samples (20 μm), under air, 300 s irradiation
Procedure: The low yellowing characteristics can be measured by the Colour index ‘b’ value on cured films.
Formulations comprising the photoinitiators and neat UViCure S105E resin were prepared as described at example 2.

[8] = LED @365 nm (120 W/cm^2), PI loading 1 wt % (Omnicat BL 550 4 wt %; Speedcure 938/CPTX 1/0.5 wt %)
[9] = LED 365 nm, 100% intensity (=70.1 mJ/cm^2), belt speed 40 m/min

| SMILES | ε at 365 nm [1] [M⁻¹ cm⁻¹] | ε at 385 nm [1] [M⁻¹ cm⁻¹] | Polymerization rate Rp/[M0]*100 [2, 8] [s⁻¹] | Final conversion ([2]; LED @365 nm (120 W/cm^2)) [%] | Polymerization rate Rp/[M0]*100 ([2]; LED @385 nm (160 W/cm^2)) [s⁻¹] | Final conversion ([2]; LED @385 nm (160 W/cm^2)) [%] | further results |
| --- | --- | --- | --- | --- | --- | --- | --- |
| COc1ccccc1-c1cc(-[s+]2c3ccccc3c(=O)c3cc(C(C)C)ccc32)ccc1OC (stereo not shown) [Photoinitiator 28, 10-(2′,6-dimethoxy[1,1′-biphenyl]-3-yl)-9-oxo-2-(propan-2-yl)-9H-thioxanthen-10-ium hexafluorophosphate] | 426 | 268 | 2.29 | 34 | 5.78 | 36 |  |
| CCCOc1ccc(Cl)c2c1[SH](c1ccc(Oc3ccccc3)cc1)c1ccccc1C2=O (stereo not shown) [Photoinitiator 16, 1-chloro-9-oxo-10-(4-phenoxyphenyl)-4-propoxy-9H-thioxanthen-10-ium hexafluorophosphate] | 20030 | 6830 | 2.88 | 40 | 3.71 | 38 |  |
| CCCOc1ccc(Cl)c2c(=O)c3ccccc3[s+](-c3ccc(-c4ccc(OC)cc4)cc3)c12 (stereo not shown) [Photoinitiator 32, 1-chloro-10-(4′-methoxy[1,1′-biphenyl]-4-yl)-9-oxo-4-propoxy-9H-thioxanthen-10-ium Hexafluorophosphate] | 4507 | 2055 | 3.73 | 28 | 4.86 | 33 | cure speed compared with photoinitiators known from prior art such as Omnicat BL 550 [2]: higher cure speed |
| COc1ccc(-c2ccc(-[s+]3c4ccccc4c(=O)c4cc(C(C)C)ccc43)cc2)cc1 (stereo not shown) [Photoinitiator 26, 10-(4′-methoxy[1,1-biphenyl]-4-yl)-9-oxo-2-(propan-2-yl)-9H-thioxanthen-10-ium hexafluorophosphate] | 3600 | 1622 | 4.94 | 26 | 3.08 | 28 | cure speed compared with photoinitiators known from prior art such as Omnicat BL 550 [2]: higher cure speed |
| CC(C)c1ccc2c(c1)c(=O)c1ccccc1[s+]2-c1ccc(Oc2ccccc2)cc1 (stereo not shown) [Photoinitiator 12, 9-oxo-10-(4-phenoxyphenyl)-2-(propan-2-yl)-9H-thioxanthen-10-ium Hexafluorophosphate] | 185 | 137 | 2.93 | 32 | 2.74 | 36 |  |
| COC(=O)COc1ccc2sc3ccc(-[s+]4c5ccccc5c(=O)c5cc(OCC(=O)OC)ccc54)cc3c(=O)c2c1 (stereo not shown) [Photoinitiator 6, 2-(2-methoxy-2-oxoethoxy)-10-[7-(2-methoxy-2-oxoethoxy)-9-oxo-9H-thioxanthen-2-yl]-9-oxo-9H-thioxanthen-10-ium Hexafluorophosphate] | 18314 | 24656 | 0.72 | 35 | 2.01 | 36 |  |
| CCCOc1ccc(Cl)c2c(=O)c3cc([S+](c4ccc(C)cc4)c4ccc(C(=O)c5ccccc5)cc4)ccc3sc12 (stereo not shown) [Photoinitiator 3, (4-benzoylphenyl)(8-chloro-9-oxo-5-propoxy-9H-thioxanthen-2-yl)(4-methylphenyl)sulfonium hexafluorophosphate] | 17066 | 17083 | 2.70 | 38 | 2.46 | 37 | Cure speed in UViCure S105E resin [3, 9]: 4.8 m/min; Cure speed in UViCure S105E resin ([3]; LED 395 nm, 40 m/min, 100% intensity (=164.5 mJ/cm^2)): 8.7 m/min; Acrylate Polymerization rate Rp/[M0]*100 [4]: 5.88 s⁻¹; Acrylate Final conversion [4]: 45%; Acrylate Final conversion [5]: 75%; Acrylate Polymerization rate Rp/[M0]*100 [5]: 5.69 s⁻¹; Epoxy Final conversion [5]: 35%; Epoxy Polymerization rate Rp/[M0]*100 [5]: 2.43 s⁻¹; Cure speed in hybrid acrylate/epoxy resin [6, 9]: 2.2 m/min; Cure speed in hybrid acrylate/epoxy resin ([6]; LED 395 nm, 80 m/min, 50% intensity (=36.9 mJ/cm^2)): no cure; Colour index ‘b’ value After Polymerization ([7]; LED @365 nm (120 mW/cm^2)): 7.40; Colour index ‘b’ value Before Polymerization ([7]; LED @365 nm (120 mW/cm^2)): 11.28; Colour index ‘b’ value After Polymerization ([7]; LED @385 nm (160 mW/cm^2)): 7.48; Colour index ‘b’ value Before Polymerization ([7]; LED @385 nm (160 mW/cm^2)): 8.40 |
| CCc1cc(CC)c2sc3ccc(-[s+]4c5ccccc5c(=O)c5cc(CC)cc(CC)c54)cc3c(=O)c2c1 (stereo not shown) [Photoinitiator 40, 10-(5,7-diethyl-9-oxo-9H-thioxanthen-2-yl)-2,4-diethyl-9-oxo-9H-thioxanthen-10-ium Hexafluorophosphate] | 19117 | 15504 | 2.72 | 18 | 5.89 | 38 | Acrylate Polymerization rate Rp/[M0]*100 [4]: 5.86 s⁻¹; Acrylate Final conversion [4]: 65%; Acrylate Final conversion [5]: 83%; Acrylate Polymerization rate Rp/[M0]*100 [5]: 10.81 s⁻¹; Epoxy Final conversion [5]: 52%; Epoxy Polymerization rate Rp/[M0]*100 [5]: 6.46 s⁻¹ |
